PMC3389297 (Bioorganic & medicinal chemistry, 2012)
Entries after “also recorded” stand apart in the source; their conditions may differ.

Legend:
Assay type in all cases: biochemical
PTP-β = PTP-β (Homo sapiens, UniProt P23467); test: Colorimetric PTP-β assay using p-NPP as substrate; settings: 5 µM compound; 1 mM p-NPP as substrate
Cdc25c = molecular target: T1, Cdc25c (Homo sapiens, UniProt P30307); test: OMFP phosphatase assay, Cdc25c
T1 sequence (P30307 321-428 limits assumed): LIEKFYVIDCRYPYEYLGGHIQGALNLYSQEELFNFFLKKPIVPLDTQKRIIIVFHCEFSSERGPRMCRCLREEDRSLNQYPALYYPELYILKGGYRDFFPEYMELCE

Cdc25a = molecular target: T2, Cdc25a (Homo sapiens, UniProt P30304); test: OMFP phosphatase assay, Cdc25a; settings: for Mode of inhibition of Cdc25a: Michaelis-Menten kinetics, varying inhibitor concentrations; for Reversibility of inhibition of Cdc25a: dilution method: pre-incubation at 4 times IC50, 10-fold dilution
T2 sequence (P30304 376-482 limits assumed): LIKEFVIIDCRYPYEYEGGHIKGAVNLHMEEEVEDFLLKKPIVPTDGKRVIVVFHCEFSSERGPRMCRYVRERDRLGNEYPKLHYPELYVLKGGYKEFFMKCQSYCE

Cdc25b = molecular target: T3, Cdc25b (Homo sapiens, UniProt P30305); test: OMFP phosphatase assay, Cdc25b; settings: for Mode of inhibition of Cdc25b: Michaelis-Menten kinetics, varying inhibitor concentrations; for Reversibility of inhibition of Cdc25b: dilution method: pre-incubation at 4 times IC50, 10-fold dilution
T3 sequence (P30305 431-538 limits assumed): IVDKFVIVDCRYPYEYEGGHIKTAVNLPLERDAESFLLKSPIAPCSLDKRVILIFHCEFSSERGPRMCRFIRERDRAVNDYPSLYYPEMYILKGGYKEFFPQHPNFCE

Chain of PTP-β (P23467 1703-1963 limits assumed): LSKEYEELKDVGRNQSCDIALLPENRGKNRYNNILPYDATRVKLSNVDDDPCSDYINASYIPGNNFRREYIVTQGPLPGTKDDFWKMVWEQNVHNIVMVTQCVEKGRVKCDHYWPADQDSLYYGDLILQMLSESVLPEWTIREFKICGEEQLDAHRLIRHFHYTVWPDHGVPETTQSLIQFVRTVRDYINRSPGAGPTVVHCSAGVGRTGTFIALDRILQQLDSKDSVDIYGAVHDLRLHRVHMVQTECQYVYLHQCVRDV

| Compound | Inhibition of PTP-β (PTP-β) | Effect on activity of Cdc25c (Cdc25c; at the concentrations tested) | Mode of inhibition of Cdc25a (Cdc25a; OMFP) | Potency relative to 13778 for Cdc25a (fold lower) (Cdc25a; OMFP) | Reversibility of inhibition of Cdc25a (Cdc25a) | Mode of inhibition of Cdc25b (Cdc25b; OMFP) | Potency relative to 13778 for Cdc25b (fold lower) (Cdc25b; OMFP) | Reversibility of inhibition of Cdc25b (Cdc25b) | Effect on activity of Cdc25c (Cdc25c; 10 µM compound) |
| --- | --- | --- | --- | --- | --- | --- | --- | --- | --- |
| [O]=[Sb]([OH])([OH])[c]1ccccc1 [Compound 13744] | does not show any inhibitory effect; also recorded: No inhibition |  |  |  |  |  |  |  |  |
| O=C(O)CCc1ccc[c]([Sb](=[O])([OH])[OH])c1 [Compound P6949, 3-(3-stibonophenyl)propanoic acid] | almost completely inhibiting phosphatase activity | not affected | partial mixed-type mode of inhibition | ~ 30 fold | reversible | partial mixed-type mode of inhibition | ~ 10 fold | reversible |  |
| O=C(O)/C=C/c1ccc[c]([Sb](=[O])([OH])[OH])c1 [Compound 13778, (E)-3-(3-stibonophenyl)acrylic acid] | almost completely inhibiting phosphatase activity |  | partial mixed-type mode of inhibition |  | reversible | partial mixed-type mode of inhibition |  | reversible | not substantially affected |
